Data from patent publication US20110039904A1, “Alcohol alkoxylates, agents comprising the same and use of the alcohol alkoxylates as adjuvants in the agrochemical field” (BASF SE, priority 2008, published 2011).

Test system: leaf rust of wheat "Puccinia recondita"
Test: Biotest: curative control of leaf rust of wheat (fungicidal efficacy of epoxiconazole with adjuvant)
Assay type: in vivo, Puccinia recondita on wheat seedlings "Kanzler"
Conditions: 50 ppm epoxiconazole without adjuvant; sprayed 2 days after inoculation; rated after 10 days; wheat seedlings, greenhouse
Description: 125 g/l epoxiconazole were ground together with in each case 20 g/l dispersant (Atlas G 5000^1, Synperonic A^1) and 50 g/l propylene glycol in aqueous medium in a stirred-ball mill (dyno-mill) until a particle size of 80% <2 μm was reached. To the mixture were added 3 g/l per liter antifoam, for example Rhodorsil 426^2, 3 g/l thickener, for example Rhodopol 23^2, and a biocide, for example Acticide MBS^3. The respective adjuvant, in aqueous solution or in a solvent, for example Solvesso, was stirred into this mixture, so that the final concentration of the formulation is composed of 62.5 g/l epoxiconazole and 125 g/l adjuvant.
Biotest (curative control of leaf rust of wheat):
Leaves of wheat seedlings of the species “Kanzler” which had been grown in pots were dusted, in the two-leaf stage, with spores of leaf rust of wheat “Puccinia recondita” and incubated for 2 days in the greenhouse at high atmospheric humidity. In fully automated spray cabins, the plants were then sprayed with the formulations which comprised the active ingredients and adjuvants specified hereinbelow. The spray mixtures comprised 50 ppm epoxiconazole and 100 ppm adjuvant. The ratio active ingredient to adjuvant was, accordingly, 1:2. […] After 10 days, the extent of the leaf rust disease was determined visually as disease percent of the total leaf area. 3 pots were evaluated for each combination.

Fc1ccc([C@]2(Cn3cncn3)O[C@H]2c2ccccc2Cl)cc1 (racemic) [Epoxiconazole, epoxiconazole]
% infection (leaf rust disease percent of the total leaf area, determined visually): 23%
